Values of other authors, collected in patent publication US6828315B1, “1-Amino triazoloc4,3-a! quinazoline-5-ones and/or -5-thiones inhibiting phosphodiesterase IV” (Warner-Lambert LLC, priority 1999, dated 2004).

Conditions: dose of 20 mg as a single intake; cited from earlier work

For `COc1ccc([C@]2(C#N)CC[C@@H](C(=O)O)CC2)cc1OC1CCCC1` [Ariflo], the adverse events is given as “significant adverse events, of the nausea and vomiting type”.
